From patent publication US20150291565A1, “INDOLE COMPOUNDS AND THEIR USE AS ANTIMICROBIALS” (Memorial Sloan-Kettering Cancer Center, priority 2012, published 2015)
≈ marks a conversion by molar mass, not a printed value. Read-outs that look alike come from different tables or passages of the source.

Tests used:
MRSA = experiment: Disk diffusion assay, zone of inhibition, MRSA; type: cell-based, Staphylococcus aureus; conditions: disk diffusion zone of inhibition
M. smegmatis (mc2155) = experiment: Disk diffusion assay, zone of inhibition, M. smegmatis; type: cell-based; conditions: disk diffusion zone of inhibition
[1] = system: S. aureus ATCC 29213 (MSSA); experiment: Broth dilution MIC, S. aureus ATCC 29213; type: cell-based; conditions: Staphylococcus aureus
[2] = system: S. aureus ATCC 33591 (MRSA); experiment: Broth dilution MIC, S. aureus ATCC 33591; type: cell-based; conditions: for MIC: Staphylococcus aureus
S. aureus BAA-39 (MDR) = experiment: Broth dilution MIC, S. aureus BAA-39; type: cell-based; conditions: for MIC: Staphylococcus aureus, BAA39
[3] = system: S. pneumoniae ATCC 6301 (PSSP); experiment: Broth dilution MIC, S. pneumoniae ATCC 6301; type: cell-based; conditions: Streptococcus pneumoniae
[4] = system: S. pneumoniae ATCC 700674 (PRSP); experiment: Broth dilution MIC, S. pneumoniae ATCC 700674; type: cell-based; conditions: Streptococcus pneumoniae
[5] = system: E. faecalis ATCC 29212 (VRE); experiment: Broth dilution MIC, E. faecalis ATCC 29212; type: cell-based
[6] = system: E. faecium ATCC 700221 (VRE); experiment: Broth dilution MIC, E. faecium ATCC 700221; type: cell-based
E. faecium CT-26 = experiment: Broth dilution MIC, E. faecium CT-26; type: cell-based; conditions: Enterococcus faecium
E. coli ECM 1694 = experiment: Broth dilution MIC, E. coli ECM 1694; type: cell-based; conditions: Escherichia coli
E. coli ATCC 25922 = experiment: Broth dilution MIC, E. coli ATCC 25922; type: cell-based; conditions: Escherichia coli
K. pneumoniae ATCC 13883 = experiment: Broth dilution MIC, K. pneumoniae ATCC 13883; type: cell-based; conditions: Klebsiella pneumoniae
K. pneumoniae ATCC 51503 = experiment: Broth dilution MIC, K. pneumoniae ATCC 51503; type: cell-based; conditions: Klebsiella pneumoniae
P. aeruginosa ATCC 9027 = experiment: Broth dilution MIC, P. aeruginosa ATCC 9027; type: cell-based; conditions: Pseudomonas aeruginosa
C. albicans ATCC 14053 = experiment: Broth dilution MIC, C. albicans ATCC 14053; type: cell-based; conditions: Candida albicans, ATCC14053; Table 1; range 64 down to 0.12 μg/ml
Description: In vitro Anti-bacterial & Anti-fungal Activity Assay: All test compounds were prepared as 6.4 mg/ml stock solutions in DMSO and further diluted according to the NCCLS M7-A6 (Page 5) document with sterile water or appropriate diluent. A working stock of 256 μg/ml was used to do 1:2 serial dilutions in 96-well plates. […] The inoculums were prepared by making a direct sterile water suspension of isolated colonies from 18 to 24 hr agar plates for all organisms (Mueller Hinton, Blood Agar or SDA plates). Each bacterial suspension was adjusted to read between 0.09 and 0.11 absorbance at 620 nm. […] These were further diluted 1/100 in appropriate broth for inoculating the 96-well plates. The C. albicans suspension was adjusted to read between 70 and 75% Transmittance at 530 nm and then diluted 1/500 in RPMI+MOPS broth. All aerobic bacterial and fungal plates were incubated for 18 hrs. at 35° C. […] Plates were read using a Beckman Automated Plate Reader at 650 nm. Readings were confirmed by visual examination of plates. (See Table 1, Table 2, Table 3, and Table 4). […] It is important to note that positive results against C. albicans are often indicative of broad spectrum antifungal activity, while negative results are not necessarily conclusory of a lack of activity against other fungus.

[7] = Table 1, range 64 down to 0.12 μg/ml, read-out: MIC S. aureus ATCC 29213
[8] = Table 2, broth dilution MIC in ug/ml, read-out: MIC S aureus ATCC 29213 MSSA
[9] = Table 1, range 64 down to 0.12 μg/ml, read-out: MIC S. aureus ATCC 33591
[10] = Table 2, broth dilution MIC in ug/ml, read-out: MIC S aureus ATCC 33591 MRSA
[11] = Table 1, range 64 down to 0.12 μg/ml, read-out: MIC S. aureus BAA-39
[12] = Table 2, broth dilution MIC in ug/ml, read-out: MIC S aureus BAA-39 MDR
[13] = ATCC6301, Table 1, range 64 down to 0.12 μg/ml, read-out: MIC S. pneumoniae ATCC 6301
[14] = ATCC6301, Table 2, broth dilution MIC in ug/ml, read-out: MIC S pneumonia ATCC 6301 PSSP
[15] = Table 1, range 64 down to 0.12 μg/ml, read-out: MIC S. pneumoniae ATCC 700674
[16] = Table 2, broth dilution MIC in ug/ml, read-out: MIC S pneumonia ATCC 700674 PRSP
[17] = Enterococcus faecalis, Table 1, range 64 down to 0.12 μg/ml, read-out: MIC E. faecalis ATCC 29212
[18] = Table 2, broth dilution MIC in ug/ml, read-out: MIC E faecalis ATCC 29212 VRE
[19] = Enterococcus faecium, Table 1, range 64 down to 0.12 μg/ml, read-out: MIC E. faecium ATCC 700221
[20] = Table 2, broth dilution MIC in ug/ml, read-out: MIC E faecium ATCC 700221 VRE
[21] = CT26, Table 1, range 64 down to 0.12 μg/ml, read-out: MIC E. faecium CT-26
[22] = CT26, Table 2, broth dilution MIC in ug/ml, read-out: MIC E faecium CT-25
[23] = ECM1694, Table 1, range 64 down to 0.12 μg/ml, read-out: MIC E. coli ECM 1694
[24] = ECM1694, Table 2, broth dilution MIC in ug/ml, read-out: MIC E. coli ECM 1693
[25] = ATCC 25921 / ATCC 25922, Table 2, broth dilution MIC in ug/ml, read-out: MIC E. coli ATCC 25921
[26] = ATCC25922, Table 1, range 64 down to 0.12 μg/ml, read-out: MIC E. coli ATCC 25922
[27] = ATCC13883, Table 1, range 64 down to 0.12 μg/ml, read-out: MIC K. pneumoniae ATCC 13883
[28] = ATCC13883, Table 2, broth dilution MIC in ug/ml, read-out: MIC K pneumonia ATCC 13883
[29] = ATCC51503, Table 1, range 64 down to 0.12 μg/ml, read-out: MIC K. pneumoniae ATCC 51503
[30] = ATCC51503, Table 2, broth dilution MIC in ug/ml, read-out: MIC K pneumonia ATCC 51503
[31] = ATCC 9026 / ATCC 9027, Table 2, broth dilution MIC in ug/ml, read-out: MIC P aeruginosa ATCC 9026
[32] = ATCC9027, Table 1, range 64 down to 0.12 μg/ml, read-out: MIC P. aeruginosa ATCC 9027

Structure (SMILES) | Zone Size MRSA (MRSA) [mm] | Zone Size M. smegmatis (M. smegmatis (mc2155)) [mm] | MIC [1, 7] [mg/L] | MIC [1, 8] [mg/L] | MIC [2, 9] [mg/L] | MIC [2, 10] [mg/L] | MIC (S. aureus BAA-39 (MDR); [11]) [mg/L] | MIC (S. aureus BAA-39 (MDR); [12]) [mg/L] | MIC [3, 13] [mg/L] | MIC [3, 14] [mg/L] | MIC [4, 15] [mg/L] | MIC [4, 16] [mg/L] | MIC [5, 18] [mg/L] | MIC [6, 19] [mg/L] | MIC [6, 20] [mg/L] | MIC (E. faecium CT-26; [21]) [mg/L] | MIC (E. faecium CT-26; [22]) [mg/L] | MIC (E. coli ECM 1694; [23]) [mg/L] | MIC (E. coli ECM 1694; [24]) [mg/L] | MIC (E. coli ATCC 25922; [25]) [mg/L] | other results
Nc1ccc(Nc2ccc(-c3cc4ccc(C5=NCCN5)cc4[nH]3)cc2)cc1 [SKI-8] | 12 | 24 | 16 (≈ 43.5 µM) | 16 (≈ 43.5 µM) | 8 (≈ 21.8 µM) | 8 (≈ 21.8 µM) | 16 (≈ 43.5 µM) | 16 (≈ 43.5 µM) | 8 (≈ 21.8 µM) | 8 (≈ 21.8 µM) | 32 (≈ 87.1 µM) | 32 (≈ 87.1 µM) | 8 (≈ 21.8 µM) | 4 (≈ 10.9 µM) | 4 (≈ 10.9 µM) | 4 (≈ 10.9 µM) | 4 (≈ 10.9 µM) | 2 (≈ 5.44 µM) | 2 (≈ 5.44 µM) | 32 (≈ 87.1 µM) | MIC [5, 17]: 8 mg/L (≈ 21.8 µM); MIC (E. coli ATCC 25922; [26]): 32 mg/L (≈ 87.1 µM); MIC (K. pneumoniae ATCC 13883; [27]): > 64 mg/L; MIC (K. pneumoniae ATCC 13883; [28]): 64 mg/L (≈ 174 µM); MIC (K. pneumoniae ATCC 51503; [29]): > 64 mg/L; MIC (K. pneumoniae ATCC 51503; [30]): 64 mg/L (≈ 174 µM); MIC (P. aeruginosa ATCC 9027; [31]): 64 mg/L (≈ 174 µM); MIC (P. aeruginosa ATCC 9027; [32]): > 64 mg/L; MIC (C. albicans ATCC 14053): 64 mg/L (≈ 174 µM)
c1ccc(-c2ccc(Nc3ccc(-c4cc5ccc(C6=NCCN6)cc5[nH]4)cc3)cc2)nc1 [SKI-12] | 10 | 12 | 1 (≈ 2.33 µM) | 1 (≈ 2.33 µM) | 1 (≈ 2.33 µM) | 1 (≈ 2.33 µM) | 1 (≈ 2.33 µM) | 1 (≈ 2.33 µM) | ≤ 0.12 | 0.12 (≈ 0.279 µM) | ≤ 0.12 | 0.12 (≈ 0.279 µM) | 0.25 (≈ 0.582 µM) | ≤ 0.12 | 0.12 (≈ 0.279 µM) | ≤ 0.12 | 0.12 (≈ 0.279 µM) | 4 (≈ 9.31 µM) | 4 (≈ 9.31 µM) | 4 (≈ 9.31 µM) | MIC ([1]; Table 3, starting at 4 μg/ml, read-out: MIC S. aureus ATCC 29213): 1 mg/L (≈ 2.33 µM); MIC S. aureus ATCC 33591 ([2]; Table 3, starting at 4 μg/ml): 1 mg/L (≈ 2.33 µM); MIC S. aureus BAA-39 (S. aureus BAA-39 (MDR); Table 3, starting at 4 μg/ml): 1 mg/L (≈ 2.33 µM); MIC ([3]; ATCC6301, Table 3, starting at 4 μg/ml, read-out: MIC S. pneumoniae ATCC 6301): 0.12 mg/L (≈ 0.279 µM); MIC ([4]; Table 3, starting at 4 μg/ml, read-out: MIC S. pneumoniae ATCC 700674): 0.12 mg/L (≈ 0.279 µM); MIC ([5]; Enterococcus faecalis, Table 3, starting at 4 μg/ml, read-out: MIC E. faecalis ATCC 29212): 0.25 mg/L (≈ 0.582 µM); MIC ([6]; Enterococcus faecium, Table 3, starting at 4 μg/ml, read-out: MIC E. faecium ATCC 700221): 0.12 mg/L (≈ 0.279 µM); MIC (E. faecium CT-26; CT26, Table 3, starting at 4 μg/ml, read-out: MIC E. faecium CT-26): 0.12 mg/L (≈ 0.279 µM); MIC (E. coli ECM 1694; ECM1694, Table 3, starting at 4 μg/ml, read-out: MIC E. coli ECM 1694): 4 mg/L (≈ 9.31 µM); MIC (E. coli ATCC 25922; [26]): 4 mg/L (≈ 9.31 µM); MIC (K. pneumoniae ATCC 13883; [27]): 8 mg/L (≈ 18.6 µM); MIC (K. pneumoniae ATCC 13883; [28]): 8 mg/L (≈ 18.6 µM); MIC (K. pneumoniae ATCC 51503; [29]): 8 mg/L (≈ 18.6 µM); MIC (K. pneumoniae ATCC 51503; [30]): 8 mg/L (≈ 18.6 µM); MIC (P. aeruginosa ATCC 9027; [31]): 32 mg/L (≈ 74.5 µM); MIC (P. aeruginosa ATCC 9027; [32]): 32 mg/L (≈ 74.5 µM); MIC (C. albicans ATCC 14053): 8 mg/L (≈ 18.6 µM)
c1cc(-c2cc3ccc(C4=NCCN4)cc3[nH]2)ccc1Nc1ccc(N2CCOCC2)cc1 [SKI-11] | 11 | 11 | 8 (≈ 18.3 µM) | 8 (≈ 18.3 µM) | 4 (≈ 9.14 µM) | 4 (≈ 9.14 µM) | 4 (≈ 9.14 µM) | 4 (≈ 9.14 µM) | 4 (≈ 9.14 µM) | 4 (≈ 9.14 µM) | 16 (≈ 36.6 µM) | 16 (≈ 36.6 µM) | 4 (≈ 9.14 µM) | 1 (≈ 2.29 µM) | 1 (≈ 2.29 µM) | 1 (≈ 2.29 µM) | 1 (≈ 2.29 µM) | 1 (≈ 2.29 µM) | 1 (≈ 2.29 µM) | 16 (≈ 36.6 µM) | MIC [5, 17]: 4 mg/L (≈ 9.14 µM); MIC (E. coli ATCC 25922; [26]): 16 mg/L (≈ 36.6 µM); MIC (K. pneumoniae ATCC 13883; [27]): > 64 mg/L; MIC (K. pneumoniae ATCC 13883; [28]): 64 mg/L (≈ 146 µM); MIC (K. pneumoniae ATCC 51503; [29]): > 64 mg/L; MIC (K. pneumoniae ATCC 51503; [30]): 64 mg/L (≈ 146 µM); MIC (P. aeruginosa ATCC 9027; [31]): 64 mg/L (≈ 146 µM); MIC (P. aeruginosa ATCC 9027; [32]): > 64 mg/L; MIC (C. albicans ATCC 14053): 32 mg/L (≈ 73.1 µM)
